In brackets after ≈: the same amount, converted by molar mass.
Columns and labels:
[1] = system: Streptococcus pyogens (SPYO 152); experiment: MIC by agar dilution, SPYO 152; assay type: cell-based; details: Streptococcus, Minimum Inhibitory Concentration, strain SPYO 152
Source text: (§1) The oxazolidinone antibacterial agents of this invention have useful activity against a variety of organisms. The in vitro activity of compounds of this invention can be assessed by standard testing procedures such as the determination of minimum inhibitory concentration (MIC) by agar dilution as described in “Approved Standard. Methods for Dilution Antimicrobial Susceptibility Tests for Bacteria That Grow Aerobically”, 3rd. ed., published 1993 by the National Committee for Clinical Laboratory Standards, Villanova, Pa., USA. The activity of compounds of this invention against Staphylococcus aureus, Staphylococcus epidermidis, Streptococcus pneumoniae, Streptococcus pyogens, Enterococcus faecalis, Moraxella catarrhalis and H. influenzae is shown in Table 1.

[2] = system: Moraxella catarrhalis (MCAT 30607); experiment: MIC by agar dilution, MCAT 30607; assay type: cell-based; details: Moraxella catarrhalis, Minimum Inhibitory Concentration, strain MCAT 30607
Source text: as §1

[3] = system: H. influenzae (HINF 30063); experiment: MIC by agar dilution, HINF 30063; assay type: cell-based; details: Haemophilus influenzae, Minimum Inhibitory Concentration, strain HINF 30063
Source text: as §1

[4] = system: Enterococcus faecalis (EFAE 9217); experiment: MIC by agar dilution, EFAE 9217; assay type: cell-based; details: Enterococcus faecalis, Minimum Inhibitory Concentration, strain EFAE 9217
Source text: as §1

[5] = system: Enterococcus faecalis (EFAE 12712); experiment: MIC by agar dilution, EFAE 12712; assay type: cell-based; details: Enterococcus faecalis, Minimum Inhibitory Concentration, strain EFAE 12712
Source text: as §1

[6] = system: Streptococcus pneumoniae (SPNE 9912); experiment: MIC by agar dilution, SPNE 9912; assay type: cell-based; details: Streptococcus pneumoniae, Minimum Inhibitory Concentration, strain SPNE 9912
Source text: as §1

[7] = system: Staphylococcus epidermidis (SEPI 30593); experiment: MIC by agar dilution, SEPI 30593; assay type: cell-based; details: Staphylococcus epidermidis, Minimum Inhibitory Concentration, strain SEPI 30593
Source text: as §1

[8] = system: Staphylococcus aureus (SAUR 9213); experiment: MIC by agar dilution, SAUR 9213; assay type: cell-based; details: Staphylococcus aureus, Minimum Inhibitory Concentration, strain SAUR 9213
Source text: as §1

MIC [1] | MIC [2] | MIC [3] | melting point | MIC [4] | MIC [5] | MIC [6] | MIC [7] | MIC [8] | Structure (SMILES)
0.5 µg/mL (≈ 1.1 µM) | 2 µg/mL (≈ 4.4 µM) | 8 µg/mL (≈ 17.6 µM) | 142 °C (dec.) | 0.5 µg/mL (≈ 1.1 µM) | 1 µg/mL (≈ 2.2 µM) | 0.5 µg/mL (≈ 1.1 µM) | 0.5 µg/mL (≈ 1.1 µM) | 4 µg/mL (≈ 8.8 µM) | CCC(=S)NC[C@H]1CN(c2ccc(N3CCN(C(=O)[C@@H](O)CO)CC3)c(F)c2)C(=O)O1 [EX 16, N-({(5S)-3-[3-fluoro-4-[4-((2S)-2,3-dihydroxypropanoyl)-1-piperazinyl]phenyl]-2-oxo-1,3-oxazolidin-5-yl}methyl)propanethioamide]
0.5 µg/mL (≈ 1.1 µM) | 2 µg/mL (≈ 4.4 µM) | 8 µg/mL (≈ 17.6 µM) | 132 °C (dec.) | 0.5 µg/mL (≈ 1.1 µM) | 1 µg/mL (≈ 2.2 µM) | 0.25 µg/mL (≈ 0.55 µM) | 0.5 µg/mL (≈ 1.1 µM) | 4 µg/mL (≈ 8.8 µM) | CCC(=S)NC[C@H]1CN(c2ccc(N3CCN(C(=O)[C@H](O)CO)CC3)c(F)c2)C(=O)O1 [EX 17, N-({(5S)-3-[3-fluoro-4-[4-((2R)-2,3-dihydroxypropanoyl)-1-piperazinyl]phenyl]-2-oxo-1,3-oxazolidin-5-yl}methyl)propanethioamide]
1 µg/mL (≈ 1.94 µM) | 8 µg/mL (≈ 15.5 µM) | > 64 µg/mL | 174 to 175 °C | 2 µg/mL (≈ 3.89 µM) | 2 µg/mL (≈ 3.89 µM) | < 0.5 µg/mL | 2 µg/mL (≈ 3.89 µM) | 2 µg/mL (≈ 3.89 µM) | CCC(=S)NC[C@H]1CN(c2ccc(N3CCN(C(=O)[C@@H](O)Cc4ccccc4)CC3)c(F)c2)C(=O)O1 [EX 19, N-[((5S)-3-{3-fluoro-4-[4-((2S)-2-hydroxy-3-phenylpropanoyl)-1-piperazinyl]phenyl}-2-oxo-1,3-oxazolidin-5-yl)methyl]propanethioamide]
1 µg/mL (≈ 1.94 µM) | 4 µg/mL (≈ 7.77 µM) | 64 µg/mL (≈ 124 µM) | 128 to 130 °C (dec.) | 1 µg/mL (≈ 1.94 µM) | 1 µg/mL (≈ 1.94 µM) | < 0.5 µg/mL | 1 µg/mL (≈ 1.94 µM) | 1 µg/mL (≈ 1.94 µM) | CCC(=S)NC[C@H]1CN(c2ccc(N3CCN(C(=O)[C@H](O)Cc4ccccc4)CC3)c(F)c2)C(=O)O1 [EX 20, N-[((5S)-3-{3-fluoro-4-[4-((2R)-2-hydroxy-3-phenylpropanoyl)-1-piperazinyl]phenyl}-2-oxo-1,3-oxazolidin-5-yl)methyl]propanethioamide]

Source: US6642238B2, “Oxazolidinone thioamides with piperazine amide substituents” (Pharmacia and Upjohn Company, priority 2000, dated 2003)
